Reference: patent US12691104B2, “Compositions containing nicotinamide and vitamin B6 and methods of using such compositions for treating sarcopenia and frailty” (SOCIETE DES PRODUITS NESTLE S.A., priority 2020, dated 2026)

Test system: Human primary myoblasts
Assay: Myogenic amplification and commitment of muscle stem cells (Pax7/MyoD staining, image quantification)
Assay type: cell-based
Conditions: donors 1 and 2 pooled, dose response, 96 hours, control DMSO 1%; for proportion of MyoD+ cells, fold change compared to the control condition: FIG. 1B/2B
Experimental: Human Skeletal Muscle Myoblasts were purchased from Lonza (https://bioscience.lonza.com). These cells were isolated from the upper arm or leg muscle tissue of normal donors and used after the second passage. Several donors were tested to ensure cell viability and purity before selecting the final donors, which are a person (refer thereafter as Donor 1), a person (refer thereafter as Donor 2) and a person (refer thereafter as Donor 3). Human primary myoblasts were seeded in 384 well plates at a density of 1′000 cells per well in skeletal muscle growth medium (SKM-M, AMSbio). For treatment, compounds were directly added to the myoblast cultures 16 hours after initial plating. All cultures were then grown for 96 hours. Cells were stained for Pax7 and MyoD expression using antibodies directed against Pax7 and MyoD and counterstained with Hoechst 33342 to visualize cell nuclei. Pax7+ cells are defined as cells that express Pax7 regardless of MyoD expression. […] Image acquisition was performed using the ImageXpress (Molecular Devices) platform. Custom module analysis based on Multi-Wavelength Cell Scoring of the MetaXpress software was used for quantification. *, **, ***, **** indicates difference from the control, One-way ANOVA, with p<0.05, p<0.01, p<0.001, p<0.0001, respectively. Data are presented as Mean+/— SEM. Human primary myoblasts from different donors (donor 1, donor 2 or donor 3) were seeded in 384 well plates at a density of 1′000 cells per well in skeletal muscle growth medium (SKM-M, AMSbio). For treatment, compounds were directly added to the myoblast cultures 16 hours after initial plating. All cultures were then grown for 96 hours. Cells were stained for Pax7 and MyoD expression using antibodies directed against Pax7 and MyoD and counterstained with Hoechst 33342 to visualize cell nuclei. Pax7+ cells are defined as cells that express Pax7 regardless of MyoD expression. […] Custom module analysis based on Multi-Wavelength Cell Scoring of the MetaXpress software was used for quantification. […]

Compound	proportion of Pax7+ cells, fold change compared to the control condition (FIG. 1A/2A)	proportion of MyoD+ cells, fold change compared to the control condition
NC(=O)c1cccnc1 [Nicotinamide]	increasing the proportion of both amplifying (Pax7+) and differentiating (MyoD+) cells in a dose dependent manner	increasing the proportion of both amplifying (Pax7+) and differentiating (MyoD+) cells in a dose dependent manner
Cc1ncc(CO)c(CO)c1O [Pyridoxine]	–	increasing the proportion of differentiating (MyoD+) cells in a dose dependent manner
